Laboratory results from PMC5593877, “Identification of endoxylanase XynE from Clostridium thermocellum as the first xylanase of glycoside hydrolase family GH141” (Scientific Reports, 2017).

Molecular target: T1, Xyn141E (Acetivibrio thermocellus, UniProt A3DHG8)
T1 construct: gene Cthe_2195
Experiment: HPAEC-PAD of hydrolysis products
Assay type: biochemical
Settings: 200 µg/mL substrate, 100 µg/mL enzyme, 10 mM MOPS pH 6.5, 50 mM NaCl, 10 mM CaCl2, 60 °C, 16 h

T1 sequence (A3DHG8 entry or part of it): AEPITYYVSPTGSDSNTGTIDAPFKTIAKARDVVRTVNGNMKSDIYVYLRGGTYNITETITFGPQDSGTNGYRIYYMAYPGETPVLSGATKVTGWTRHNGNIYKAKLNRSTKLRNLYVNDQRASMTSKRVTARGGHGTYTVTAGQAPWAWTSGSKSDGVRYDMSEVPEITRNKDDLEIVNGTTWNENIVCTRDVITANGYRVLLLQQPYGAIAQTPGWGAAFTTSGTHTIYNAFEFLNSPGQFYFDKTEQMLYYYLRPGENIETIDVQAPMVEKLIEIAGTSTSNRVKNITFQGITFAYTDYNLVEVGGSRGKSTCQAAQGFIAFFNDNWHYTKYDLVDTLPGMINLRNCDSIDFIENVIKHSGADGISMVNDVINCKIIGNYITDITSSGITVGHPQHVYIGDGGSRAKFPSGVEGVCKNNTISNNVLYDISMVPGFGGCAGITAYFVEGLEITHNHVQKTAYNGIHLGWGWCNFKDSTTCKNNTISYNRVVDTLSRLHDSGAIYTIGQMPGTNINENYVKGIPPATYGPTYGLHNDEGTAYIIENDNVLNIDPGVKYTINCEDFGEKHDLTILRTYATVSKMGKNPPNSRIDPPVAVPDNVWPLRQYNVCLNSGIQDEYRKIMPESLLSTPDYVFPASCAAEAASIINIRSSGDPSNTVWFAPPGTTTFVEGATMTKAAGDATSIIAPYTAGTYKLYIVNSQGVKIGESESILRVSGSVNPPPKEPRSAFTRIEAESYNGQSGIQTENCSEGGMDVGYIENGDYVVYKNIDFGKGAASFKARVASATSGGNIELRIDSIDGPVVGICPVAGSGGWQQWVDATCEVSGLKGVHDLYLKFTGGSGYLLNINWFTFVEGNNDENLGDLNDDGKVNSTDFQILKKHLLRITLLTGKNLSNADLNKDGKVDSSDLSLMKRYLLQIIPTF

SMILES	HPAEC-PAD of hydrolysis products
OC1OC[C@@H](O[C@@H]2OC[C@@H](O[C@@H]3OC[C@@H](O[C@@H]4OC[C@@H](O[C@@H]5OC[C@@H](O)[C@H](O)[C@H]5O)[C@H](O)[C@H]4O)[C@H](O)[C@H]3O)[C@H](O)[C@H]2O)[C@H](O)[C@H]1O (some centres unmarked) [X5, xylopentaose]	Xyn141E was able to hydrolyse X5 and X4 to X2 and X3 or X2, respectively.
OC1OC[C@@H](O[C@@H]2OC[C@@H](O[C@@H]3OC[C@@H](O[C@@H]4OC[C@@H](O)[C@H](O)[C@H]4O)[C@H](O)[C@H]3O)[C@H](O)[C@H]2O)[C@H](O)[C@H]1O (some centres unmarked) [X4, xylotetraose]	Xyn141E was able to hydrolyse X5 and X4 to X2 and X3 or X2, respectively.
